Drawing on PubChem BioAssay AID2635 (Broad Institute, 2010), this text covers EC50 for 58 compounds.

Molecules are shown by their SMILES. Results filed as inconclusive are left out. The source made the active and inactive calls. The rule behind the calls is not given here.

The assay concerns BJ-TERT RAS-dependent fibroblast cytotoxicity, fluorescence. The experiment in a line: cytotoxicity toward RAS-dependent BJ-TERT fibroblasts, dose response, cell-based, fluorescence viability readout (AID 2635).
On to `COc1ccc(Cc2nc(-c3ccc(NC(=O)c4cccnc4)cc3)no2)cc1`, for which the EC50 is > 6.67 µM (inactive).

For the compound `CC(Oc1ccc(Cl)cc1Cl)c1nc(-c2ccc(NC(=O)c3cccnc3)cc2)no1` (stereo not drawn), the EC50 was > 6.67 µM (inactive). Next, `O=S(=O)(c1ccc2c(c1)C(=NO)c1cc(S(=O)(=O)N3CCCCC3)ccc1-2)N1CCCCC1`: 2.58 µM. To `CC(C)C(=O)Nc1ccc(C(=O)NCc2cccnc2)cc1` belongs > 6.67 µM (inactive); to `CCN(CC)c1ccc(/C=N/NC(=O)c2nnn(-c3nonc3N)c2C(C)C)c(O)c1`, 0.954 µM. To `CCOc1ccc(CC(=O)Nc2ccc(NC(=O)c3ccco3)cc2)cc1OCC` belongs > 6.67 µM (inactive); to `O=C(COc1ccc(Cl)cc1)Nc1ccc(C(=O)NCc2cccnc2)cc1`, > 6.67 µM (inactive). With `C=CCOc1ccccc1CN(C(=O)CCl)c1ccc2c(c1)OCO2`, the EC50 is > 6.67 µM (inactive).

In the case of `C/C(=N\Nc1ccc2nncn2n1)c1ccccn1`, the EC50 was 5.47 µM.

`COc1ccc(N(C(=O)CCl)C(C(=O)NCCc2ccccc2)c2cccs2)cc1Cl` (stereo not drawn): the EC50 was > 2.08 µM (inactive). Next, `O=C(N/N=C/c1cccnc1)c1ccc(NC(=O)C(c2ccccc2)c2ccccc2)cc1`: > 6.67 µM (inactive). Next, `O=C(NCc1cccnc1)c1ccc(NC(=O)c2cccc([N+](=O)[O-])c2)cc1`: > 6.67 µM (inactive); `CCc1ccc(/C=C2/SC(=S)N(CCC(=O)NCCCN3CCOCC3)C2=O)cc1`: > 6.67 µM (inactive). Consider `COC(=O)C[C@](O)(CCCC(C)(C)O)C(=O)O[C@@H]1C(OC)=C[C@]23CCCN2CCc2cc4c(cc2[C@H]13)OCO4`, for which the EC50 is 0.00683 µM. Next, `O=C(NCCOc1cccnc1)c1ccc(OC2CCN(Cc3ccccn3)CC2)cc1`: 5.19 µM; `Cc1ccccc1Nc1nc(N)nc(CCl)n1`: > 6.67 µM (inactive); `O=C(NCc1cccnc1)c1ccc(NC(=O)c2ccc([N+](=O)[O-])cc2)cc1`: > 6.67 µM (inactive). As to `COc1ccc(S(=O)(=O)N2CCOCC2)cc1NC(=O)CCNC(=O)c1ccc(Br)cc1`, the EC50 was > 6.67 µM (inactive).

Consider `COc1cccc(/C=C2\SC(=S)N(CCCC(=O)N(CCO)c3ccccc3)C2=O)c1`, for which the EC50 was > 6.67 µM (inactive). Next, `O=C(CCN1C(=O)/C(=C\c2cccc(Br)c2)SC1=S)NCCCN1CCOCC1`: > 6.67 µM (inactive); `CCN1/C(=C\C=C\C2=[N+](CC)c3ccccc3C2(C)C)C(C)(C)c2ccccc21`: 0.287 µM; `COc1cccc(N(C(=O)CCl)C(C(=O)NCCc2ccccc2)c2cccs2)c1` (stereo not drawn): 6.05 µM. Next, `COc1ccc(N(C(=O)CCl)C(C(=O)NCCc2ccccc2)c2cccs2)cc1` (stereo not drawn): 4.89 µM; `CC[C@@]1(O)C(=O)OCc2c1cc1n(c2=O)Cc2cc3ccccc3nc2-1`: 0.0178 µM. `COc1ccc(OC)c(Nc2nc(N)nc(CCl)n2)c1`: the EC50 was > 6.67 µM (inactive). Next, `O=C(Cc1ccc([N+](=O)[O-])cc1)N/N=C/c1ccc([N+](=O)[O-])o1`: > 6.67 µM (inactive); `Cc1ccc(C(=O)Sc2cccccc2=O)cc1`: 0.13 µM; `Cc1cccnc1Nc1nc(-c2ccccn2)cs1`: 0.985 µM. Regarding `O=[N+]([O-])c1ccc(N=Nc2ncc[nH]2)cc1`, the EC50 was > 6.67 µM (inactive). Regarding `Oc1ccccc1N=Nc1nc(-c2ccccc2)c(-c2ccccc2)[nH]1`, the EC50 was 0.374 µM. Next, `COc1ccc(C(C(=O)NC2CCCCC2)N(C(=O)CCl)c2cccc(Cl)c2)cc1` (stereo not drawn): > 2.08 µM (inactive); `C/C(=N\Nc1ncc(Cl)cc1Cl)c1ccccn1`: 0.0273 µM. As for `Cc1cccc(Nc2nc(N)nc(CCl)n2)c1`, the EC50 was > 6.67 µM (inactive). Next, `O=S(=O)(c1ccc(NC(=S)NCc2cccnc2)cc1)N1CCCCC1`: > 6.67 µM (inactive).

As for `CC(=O)Nc1ccc(NC(=O)CN(c2cccc([N+](=O)[O-])c2)S(C)(=O)=O)cc1`, the EC50 was > 6.67 µM (inactive).

For the compound `COC(=O)[C@@H]1Cc2c([nH]c3ccccc23)C(C)(C)N1C(=O)CCl`, the EC50 is > 6.67 µM (inactive). To `Cc1ccc(N(C(=O)CCl)C(C(=O)NC2CCCCC2)c2cccnc2)cc1C` (stereo not drawn) belongs 0.26 µM; to `CC[C@@]1(O)C(=O)OCc2c1cc1n(c2=O)Cc2cc3c(CN(C)C)c(O)ccc3nc2-1`, 0.23 µM; to `CN1CCN(C(=O)CCCN2C(=O)/C(=C/c3cccc(Br)c3)SC2=S)CC1`, > 6.67 µM (inactive). Regarding `CC[C@@]1(O)C(=O)OCc2c1cc1n(c2=O)Cc2cc3c(N)cccc3nc2-1`, the EC50 was 0.052 µM. Next, `Cc1ccc(Nc2nc(N)nc(CCl)n2)c(C)c1`: > 6.67 µM (inactive); `CC[C@@]1(O)C(=O)OCc2c1cc1n(c2=O)Cc2cc3c(NC(=O)CN)cccc3nc2-1`: 5.85 µM; `CC(C)(C)c1nnc(N/N=C/c2cc(Br)ccc2O)n(N)c1=O`: 1.91 µM. To `CCc1ccc(/C=C2/SC(=S)N(CCC(=O)Nc3cccnc3)C2=O)cc1` belongs > 6.67 µM (inactive); to `Nc1nc(CCl)nc(Nc2cccc3ccccc23)n1`, > 6.67 µM (inactive); to `CC1=CC(=O)C=C(C)C1=NOc1ccccc1[N+](=O)[O-]`, > 6.67 µM (inactive). To `CC(C)(C)c1ccc(C(=O)Nc2ccc(C(=O)NCc3cccnc3)cc2)cc1` belongs > 6.67 µM (inactive); to `O=C(NCc1cccnc1)c1ccc(-c2cc3ccccc3oc2=O)cc1`, > 6.67 µM (inactive); to `COc1ccc(C[C@H]2NC[C@H](O)[C@H]2OC(C)=O)cc1`, 0.0456 µM. For the compound `COc1ccc(C(C(=O)NC2CCCCC2)N(C(=O)CCl)c2ccc(C)cc2)cc1` (stereo not drawn), the EC50 is > 6.67 µM (inactive). To `O=C(CCl)N=c1sccn1Cc1ccccc1Cl` belongs > 2.08 µM (inactive); to `CCc1ccc(/C=C2\SC(=S)N(CCC(=O)NCCCN3CCOCC3)C2=O)cc1`, > 6.67 µM (inactive); to `O=C(CCCCCN1C(=O)c2cccc3cccc(c23)C1=O)NCc1cccnc1`, > 6.67 µM (inactive).

Regarding `Cc1cccc(Nc2nc(N)nc(CCl)n2)c1C`, the EC50 was > 6.67 µM (inactive). To `Cc1cccc(OCC(=O)Nc2ccc(C(=O)NCc3cccnc3)cc2)c1` belongs > 6.67 µM (inactive). Next, `C=C1C(=O)O[C@@H]2C[C@@H](C)[C@@H]3C=CC(=O)[C@@]3(C)[C@@H](OC(=O)CC(=O)O[C@H]3[C@@H]4C(=C)C(=O)O[C@@H]4C[C@@H](C)[C@@H]4C=CC(=O)[C@]43C)[C@H]12`: 0.144 µM. To `CC[C@H]1CN2CCc3cc(OC)c(OC)cc3[C@@H]2C[C@@H]1C[C@H]1NCCc2cc(OC)c(OC)cc21` belongs 0.0103 µM. As to `Cc1ccc(/C=C2\SC(=S)N(CCCC(=O)N3CCOCC3)C2=O)cc1`, the EC50 was > 6.67 µM (inactive).
